Source: the supplement of paper PMC11451515

System: SEM cells
Assay: cell viability relative to DMSO control; higher = less cytotoxic
Details: 48 h
Method in brief: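 Library compounds in DMSO were pin-dosed into 1536-well plates (5 μl) holding NOMO1 or SEM (500 cells/well) or P12-Ichikawa (1000 cells/well) leukemia cells, across an 11-point threefold series of 47 μM to 0.79 nM. Each cell line had been adapted for at least four passages in each medium. CellTiter-Glo One luminescence was read after 48 h at 37°C. Viability is the per-plate percentage relative to DMSO wells, with cell-free wells as background.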

[1] = HPLM + 10% dialyzed FBS, 0.000781 µM
[2] = HPLM + 10% dialyzed FBS, 0.00234 µM
[3] = HPLM + 10% dialyzed FBS, 0.00702 µM
[4] = HPLM + 10% dialyzed FBS, 0.0211 µM
[5] = HPLM + 10% dialyzed FBS, 0.0632 µM
[6] = HPLM + 10% dialyzed FBS, 0.19 µM
[7] = HPLM + 10% dialyzed FBS, 0.569 µM
[8] = HPLM + 10% dialyzed FBS, 1.71 µM
[9] = HPLM + 10% dialyzed FBS, 5.12 µM
[10] = HPLM + 10% dialyzed FBS, 15.4 µM
[11] = HPLM + 10% dialyzed FBS, 46.1 µM
[12] = RPMI 5 mM glucose + 10% dialyzed FBS, 0.000781 µM
[13] = RPMI 5 mM glucose + 10% dialyzed FBS, 0.00234 µM
[14] = RPMI 5 mM glucose + 10% dialyzed FBS, 0.00702 µM
[15] = RPMI 5 mM glucose + 10% dialyzed FBS, 0.0211 µM
[16] = RPMI 5 mM glucose + 10% dialyzed FBS, 0.0632 µM
[17] = RPMI 5 mM glucose + 10% dialyzed FBS, 0.19 µM
[18] = RPMI 5 mM glucose + 10% dialyzed FBS, 0.569 µM
[19] = RPMI 5 mM glucose + 10% dialyzed FBS, 1.71 µM
[20] = RPMI 5 mM glucose + 10% dialyzed FBS, 5.12 µM
[21] = RPMI 5 mM glucose + 10% dialyzed FBS, 15.4 µM
[22] = RPMI 5 mM glucose + 10% dialyzed FBS, 46.1 µM
[23] = RPMI 5 mM glucose + 10% FBS, 0.000781 µM
[24] = RPMI 5 mM glucose + 10% FBS, 0.00234 µM
[25] = RPMI 5 mM glucose + 10% FBS, 0.00702 µM
[26] = RPMI 5 mM glucose + 10% FBS, 0.0211 µM
[27] = RPMI 5 mM glucose + 10% FBS, 0.0632 µM
[28] = RPMI 5 mM glucose + 10% FBS, 0.19 µM
[29] = RPMI 5 mM glucose + 10% FBS, 0.569 µM
[30] = RPMI 5 mM glucose + 10% FBS, 1.71 µM
[31] = RPMI 5 mM glucose + 10% FBS, 5.12 µM
[32] = RPMI 5 mM glucose + 10% FBS, 15.4 µM
[33] = RPMI 5 mM glucose + 10% FBS, 46.1 µM

| Structure (SMILES) | cell viability [1] [%] | cell viability [2] [%] | cell viability [3] [%] | cell viability [4] [%] | cell viability [5] [%] | cell viability [6] [%] | cell viability [7] [%] | cell viability [8] [%] | cell viability [9] [%] | cell viability [10] [%] | cell viability [11] [%] | cell viability [12] [%] | cell viability [13] [%] | cell viability [14] [%] | cell viability [15] [%] | cell viability [16] [%] | cell viability [17] [%] | cell viability [18] [%] | cell viability [19] [%] | cell viability [20] [%] | cell viability [21] [%] | cell viability [22] [%] | cell viability [23] [%] | cell viability [24] [%] | cell viability [25] [%] | cell viability [26] [%] | cell viability [27] [%] | cell viability [28] [%] | cell viability [29] [%] | cell viability [30] [%] | cell viability [31] [%] | cell viability [32] [%] | cell viability [33] [%] |
| --- | --- | --- | --- | --- | --- | --- | --- | --- | --- | --- | --- | --- | --- | --- | --- | --- | --- | --- | --- | --- | --- | --- | --- | --- | --- | --- | --- | --- | --- | --- | --- | --- | --- |
| CC(C)c1cnn2c(NCc3ccccc3)cc(N[C@@H](CO)[C@H](O)CO)nc12 | 117 | 140 | 120 | 119 | 142 | 136 | 79.9 | 9.33 | 5.66 | 4.28 | 1.69 | 121 | 134 | 121 | 123 | 120 | 121 | 80.7 | 8.71 | 5.19 | 3.66 | 1.44 | – | – | – | – | – | – | – | – | – | – | – |
| COc1ccc(Cc2ccc(NC(N)=O)cc2)cc1-c1cccc(Cl)c1 | 106 | 104 | 110 | 95.4 | 122 | 123 | 106 | 119 | 120 | 122 | 106 | 107 | 111 | 113 | 123 | 124 | 122 | 108 | 111 | 120 | 108 | 87.3 | 100 | 102 | 101 | 117 | 110 | 113 | 113 | 115 | 113 | 115 | 103 |
| CCN(CC)CC#CCOC(=O)C(O)(c1ccccc1)C1CCCCC1 (stereo unspecified) | 108 | 109 | 98.1 | 92.4 | 115 | 111 | 124 | 121 | 105 | 129 | 98.5 | 117 | 112 | 145 | 83.3 | 126 | 132 | 142 | 120 | 135 | 129 | 99.3 | 108 | 117 | 126 | 80 | 115 | 121 | 118 | 120 | 125 | 104 | 102 |
| NC[C@H]1CC[C@H](C(=O)O)CC1 | 58.2 | 128 | 113 | 111 | 119 | 131 | 123 | 124 | 113 | 111 | 104 | 56.4 | 110 | 106 | 126 | 106 | 104 | 99.9 | 116 | 99.7 | 102 | 92.7 | – | – | – | – | – | – | – | – | – | – | – |
| CC(C)(C)C(=O)Oc1ccc2c(c1)nc(NC(=O)c1cccc([N+](=O)[O-])c1)n2CCCO | 107 | 122 | 118 | 119 | 110 | 120 | 110 | 104 | 102 | 88.5 | 93.2 | 121 | 138 | 122 | 116 | 108 | 121 | 101 | 81.1 | 107 | 106 | 128 | 130 | 120 | 118 | 112 | 117 | 126 | 114 | 95.7 | 97.5 | 105 | 118 |
| ClC1=C(N\C2=N\CCN2)C3=NSN=C3C=C1 | 77.6 | 91.6 | 107 | 69.7 | 97.8 | 105 | 102 | 111 | 115 | 116 | 113 | 94.2 | 105 | 110 | 69.1 | 120 | 122 | 129 | 121 | 118 | 137 | 137 | 93.7 | 111 | 115 | 74.6 | 121 | 114 | 114 | 109 | 117 | 126 | 126 |
